Experimental data taken from the supplement of paper PMC13380429.

Assays:
Conditions in all cases: 72 h
[1] = system: U2OS; assay: cell viability relative to DMSO; higher = less toxic
[2] = system: Caco-2; assay: as above
[3] = system: HepG2; assay: as above
[4] = system: Calu-3; assay: as above
[5] = system: Vero E6; assay: as above
[6] = system: U2OS; assay: drug sensitivity score (DSS) for viability; higher = more toxic; extreme values may be limits of the assay
[7] = system: Caco-2; assay: as above
[8] = system: HepG2; assay: as above
[9] = system: Calu-3; assay: as above
[10] = system: Vero E6; assay: as above
[11] = system: U2OS; assay: relative viability EC50 (midpoint between 100% and the lowest measured viability); higher = less toxic
[12] = system: Caco-2; assay: as above
[13] = system: HepG2; assay: as above
[14] = system: Calu-3; assay: as above
[15] = system: Vero E6; assay: as above

Row | SMILES | cell viability ([1]; 1 nM) | cell viability ([1]; 10 nM) | cell viability ([1]; 100 nM) | cell viability ([1]; 1000 nM) | cell viability ([1]; 10000 nM) | cell viability ([2]; 1 nM) | cell viability ([2]; 10 nM) | cell viability ([2]; 100 nM) | cell viability ([2]; 1000 nM) | cell viability ([2]; 10000 nM) | cell viability ([3]; 1 nM) | cell viability ([3]; 10 nM) | cell viability ([3]; 100 nM) | cell viability ([3]; 1000 nM) | cell viability ([3]; 10000 nM) | cell viability ([4]; 1 nM) | cell viability ([4]; 10 nM) | cell viability ([4]; 100 nM) | cell viability ([4]; 1000 nM) | cell viability ([4]; 10000 nM) | cell viability ([5]; 1 nM) | cell viability ([5]; 10 nM) | cell viability ([5]; 100 nM) | cell viability ([5]; 1000 nM) | cell viability ([5]; 10000 nM) | drug sensitivity score [6] | drug sensitivity score [7] | drug sensitivity score [8] | drug sensitivity score [9] | drug sensitivity score [10] | relative viability EC50 [11] | relative viability EC50 [12] | relative viability EC50 [13] | relative viability EC50 [14] | relative viability EC50 [15]
1 | CCC(=O)NO [ZAMI-633] | 97.5% | 97.9% | 92.8% | 93.3% | 105% | 100% | 96.7% | 93.4% | 96.8% | 127% | 110% | 97% | 104% | 90.6% | 85.1% | 101% | 102% | 94.2% | 93.6% | 97.2% | 110% | 95% | 109% | 97.1% | 89% | 0 | 0 | 0.9 | 0 | 0.1 | > 10 µM | > 10 µM | > 10 µM | > 10 µM | > 10 µM
2 | CCS(=O)(=O)N1CCC[C@@H]2CN3CCc4cc(OC)ccc4[C@@H]3C[C@@H]21 | 99.5% | 103% | 108% | 108% | 106% | 94.7% | 94.2% | 95% | 104% | 91.7% | 99.9% | 113% | 109% | 92.2% | 102% | 103% | 90.4% | 109% | 101% | 103% | 96.3% | 103% | 97.1% | 93.8% | 105% | 0 | 0 | 0 | 0 | 0 | > 10 µM | > 10 µM | > 10 µM | > 10 µM | > 10 µM
3 | Oc1ccc2ccccc2c1SSc1c(O)ccc2ccccc12 [IPA-3] | 93.2% | 96.6% | 97.6% | 98.3% | 92.9% | 98.9% | 94.9% | 91% | 95.7% | 92.9% | 104% | 109% | 89.2% | 106% | 103% | 96.3% | 109% | 99.8% | 107% | 111% | 99.7% | 101% | 102% | 102% | 95.8% | 0 | 0 | 0 | 0 | 0 | > 10 µM | > 10 µM | > 10 µM | > 10 µM | > 10 µM
4 | Cc1ccc(=O)n(-c2ccc(O)cc2)c1 [F351] | 99.2% | 97.3% | 97.2% | 100% | 97.4% | 92.1% | 92.6% | 96.7% | 100% | 93% | 105% | 93.1% | 108% | 101% | 96.9% | 90.2% | 105% | 96.9% | 85.2% | 97.4% | 98.1% | 100% | 94.4% | 99.1% | 95.4% | 0 | 0 | 0 | 0 | 0 | > 10 µM | > 10 µM | > 10 µM | > 10 µM | > 10 µM
5 | CN(C(=O)CN1C(=O)COc2cc(Cl)c(Cl)cc21)[C@@H](CN1CCCC1)c1ccc(-c2cccc(C(N)=O)c2)cc1 | 100% | 97.1% | 104% | 94.1% | 3.5% | 97.9% | 99% | 101% | 97.1% | 7.2% | 95% | 104% | 91.5% | 99% | 10.5% | 109% | 111% | 102% | 114% | 7% | 96.9% | 97% | 94.9% | 97.1% | 2.8% | 6.2 | 5.5 | 5.1 | 4.3 | 5.8 | 2.68 µM | 2.94 µM | 3.09 µM | 3.79 µM | 2.94 µM
6 | CCOC(=O)[C@H](CCc1ccccc1)N[C@@H](C)C(=O)N1C(=O)N(C)C[C@H]1C(=O)O [imidapril] | 101% | 93.4% | 97.7% | 95.7% | 102% | 95.1% | 87.8% | 93.9% | 97.6% | 97.8% | 94.6% | 103% | 104% | 113% | 104% | 98.5% | 96.4% | 99.8% | 97.5% | 96.8% | 104% | 98.3% | 98.1% | 101% | 99.9% | 0 | 0 | 0 | 0 | 0 | > 10 µM | > 10 µM | > 10 µM | > 10 µM | > 10 µM
